The values that follow come from patent publication US6858621B2, “2-(quinolonyl)-fused heterocycles as androgen receptor modulators” (Ortho-McNeil Pharmaceutical, Inc., priority 2002, dated 2005).

The test concerns the target T1, androgen receptor LBD (Panvera) (Rattus norvegicus, UniProt P15207).
T1 construct: 5 pmol androgen receptor LBD (Panvera); purchased Panvera
T1 sequence (P15207 651-882 limits assumed): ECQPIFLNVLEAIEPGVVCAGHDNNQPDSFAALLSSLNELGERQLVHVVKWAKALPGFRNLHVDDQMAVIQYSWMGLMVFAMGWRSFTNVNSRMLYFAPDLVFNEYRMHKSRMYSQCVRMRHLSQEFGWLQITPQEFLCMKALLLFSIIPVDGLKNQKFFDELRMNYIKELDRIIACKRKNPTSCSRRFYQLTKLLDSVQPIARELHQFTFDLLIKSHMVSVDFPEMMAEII
In words: Androgen Receptor Filtration Binding Assay (Panvera receptor). The note with it: Panvera receptor data; 0.5 nM [3H] R1881 tracer. How it is done:
In Vitro Assay—Androgen Receptor Filtration Binding Assay
The assay was run on a 96 well plate with each well filled with total reaction volume 150 μL, of a solution containing 5 pmol androgen receptor LBD (Panvera) or […] of freshly prepared rat cytosol, 0.5 nM [^3H] R1881 tracer (NEN), 1.5 μL (10 μM) test compound or vehicle (diluted in 30% DMSO, final concentration of DMSO 0.75%) and […] of TED buffer. (TED buffer contains 10 mM Tris.HCl pH 7.4, 1 mM sodium molybdate (60 mg/250 mL), 1.5 mM EDTA, 1 mM DTT and 10% (v/v) glycerol.)
On day one, the solution containing receptor, tracer and TED buffer was distributed onto a 96 well plate. Diluted test compound or control vehicle was then added to individual wells and the plate incubated ay 4° C. overnight.
On day two, to each well was then added 20 μL human γ-globulin (ICN 823102), prepared at 25 mg/ml in TE pH 8.0 and 55 μL 40% polyethylene glycol 8000 (J T Baker U222-08), prepared in TE pH 8.0. […] The plate wells were then counted on a TopCount (Packard).
Representative compounds of the present invention were tested for binding to the androgen receptor according to the procedure described above with results as listed in Table 3. % Inhibition values less that 0% indicate no binding at the […] level. The negative number(s) are a result of experimental error from the low number of counts detected.

Consider `O=c1cc(C(F)(F)F)c2c3c(ccc2[nH]1)OC(F)(F)C(F)(F)O3` [compound 2], for which the IC50 is 4.8 µM.

Take `O=c1cc(C(F)(F)F)c2c3c(ccc2[nH]1)OCCO3` [compound 1]: the IC50 was 5.2 µM.
